We go through two compounds from article PMC8623467, “Biochemical Characterization of Recombinant Isocitrate Dehydrogenase and Its Putative Role in the Physiology of an Acidophilic Micrarchaeon” (Microorganisms, 2021).

The experiment deals with T1, MhIDH6x His.
T1 construct: gene icd2; full-length; N-terminal 6xHis tag kept (primer: MHHHHHHEEQKKESIS...); C-terminus AIKSA from primer; pBAD202, E. coli Rosetta pRARE; Ni-IMAC and SEC; homodimer only modelled
The experiment in a line: NADPH formation at […] nm, Michaelis-Menten fit. The experiment is classed as biochemical, Candidatus Micrarchaeum harzensis. Particulars: 100 mM TRIS/HCl pH 8.0, 28 °C, Mg2+ (5 mM MgCl2 standard mixture).

As for `O=C(O)CC(C(=O)O)C(O)C(=O)O` (racemic) [DL-isocitrate], the Km (20 mM NADP+ (Figure 4 legend)) was 53 ± 5.63 µM. For the compound `NC(=O)c1ccc[n+]([C@@H]2O[C@H](COP(=O)(O)OP(=O)(O)OC[C@H]3O[C@@H](n4cnc5c(N)ncnc54)[C@H](OP(=O)(O)O)[C@@H]3O)[C@@H](O)[C@H]2O)c1` [NADP^+], under “1 mM DL-isocitrate”, the Km was 1940 ± 120 µM.
